Square brackets hold non-standard residues; d marks the D form. Ends that are not written are not given here. Peptide text beside a SMILES is read from it.
How the values were obtained:
B. cereus = assay type: cell-based; settings: pH 7.2
Description: (§1) The experiments described above characterizing the activity of granulysin peptides G1-G18 relied on counting bacterial colonies on plates. This assay is quite labor intensive and would not allow evaluation of many different compounds on a number of different microbes. Therefore, we optimized an assay in which the entire procedure could be completed in a single microtiter well. Briefly, peptides are diluted in 10 mM phosphate buffer, pH 7.2 supplemented with 0.03% LB (J. Sambrook, D. W. Russell, Molecular Cloning: A Laboratory Manual (Cold Spring Harbor Laboratory Press, New York, ed. 3, 2001) pg. A2.2, Retrieved from http://openwetware.org/wiki/LB) and 25 μl is added to microtiter wells. Bacteria (25 μl) are added (˜5×10^6 colony forming units/ml) in the same buffer. After a 3-hour incubation at 37° C., 150 μl of LB is added and the plates are incubated overnight. The OD at 600 nm is read on an ELISA plate reader. The minimum inhibitory concentration (MIC) is the lowest concentration allowing no bacterial growth. The IC50 is the concentration of peptide that results in 50% growth compared to the medium.
(§2) We now describe additional peptides and their activity. The peptides have been designed, synthesized, and have been tested for lysis of E. coli and S. typhimurium (gram negative bacteria), B. cereus (gram positive bacterium). Results are shown in Table 2 along with the amino acid sequence of the peptide. Changes from the naturally occurring sequence are underlined. In general, the desired result is lysis of bacteria at low concentration (<1 μM).
(§3) In Table 2, Columns 2-7 are the MIC and IC50 (concentration required for 50% inhibition of growth) for each organism (E. coli, Salmonella, and B. cereus). The MIC (minimum inhibitory concentration) was determined as described above, in a multiwell plate assay. […] L-isomer amino acids are designated by capital letters while D-isomer amino acids are designated by lower case letters.

E. coli DH5a = assay type: cell-based; settings: DH5a, pH 7.2
Description: as §1, §2, §3

Salmonella = assay type: cell-based, S. typhimurium; settings: pH 7.2
Description: as §1, §2, §3

Compound	B. cereus MIC (B. cereus) [µM]	IC50 (B. cereus) [nM]	E. coli DH5a MIC (E. coli DH5a) [µM]	IC50 (E. coli DH5a) [nM]	IC50 (Salmonella) [nM]	Salmonella MIC (Salmonella) [µM]
CSCC[C@@H](NC(=O)[C@@H](Cc1ccccc1)NC(=O)[C@@H](CCCCN)NC(=O)[C@@H](CCCCN)NC(=O)[C@@H](CO)NC(=O)[C@H](NC(=O)[C@@H](CCCCN)NC(=O)[C@@H](CCCCN)NC(=O)[C@@H](CO)NC(=O)CNC(=O)[C@@H](CCCCN)NC(=O)[C@@H](CCCCN)NC(=O)[C@@H](CCSC)NC(=O)[C@@H](Cc1ccccc1)NC(=O)[C@@H](CCCCN)NC(=O)[C@@H](CCCCN)NC(=O)[C@@H](CO)NC(=O)[C@H](NC(=O)[C@@H](CCCCN)NC(=O)[C@@H](CCCCN)NC(=O)[C@@H](CO)NC(=O)CNC(=O)[C@@H](CCCCN)NC(=O)[C@@H](CCCCN)NC(=O)[C@@H](CCSC)NC(=O)[C@@H](Cc1ccccc1)NC(=O)[C@@H](CCCCN)NC(=O)[C@@H](CCCCN)NC(=O)[C@@H](CO)NC(=O)[C@H](NC(=O)[C@@H](CCCCN)NC(=O)[C@H](N)CCCCN)C(C)C)C(C)C)C(C)C)C(=O)N[C@H](CCCCN)C(=O)N[C@H](CCCCN)C(=O)O [Peptide G11.55, kkvskkfmkkgskkvskkfmkkgskkvskkfmkk] (H-[dK][dK][dV][dS][dK][dK][dF][dM][dK][dK]G[dS][dK][dK][dV][dS][dK][dK][dF][dM][dK][dK]G[dS][dK][dK][dV][dS][dK][dK][dF][dM][dK][dK]-OH; N-terminus and C-terminus assumed)	0.2	100	4	980	> 10000	>10
CC[C@H](C)[C@H](NC(=O)[C@@H](NC(=O)[C@@H](CCCNC(=N)N)NC(=O)[C@H](CO)NC(=O)[C@H](CCC(N)=O)NC(=O)[C@@H](CCCNC(=N)N)NC(=O)[C@@H](CCCNC(=N)N)NC(=O)[C@H](CCSC)NC(=O)[C@H](Cc1ccccc1)NC(=O)[C@@H](CCCNC(=N)N)NC(=O)[C@H](CCCNC(=N)N)NC(=O)[C@H](C)NC(=O)[C@H](NC(=O)[C@H](CC(=O)O)NC(=O)[C@@H](N)CCCNC(=N)N)C(C)C)C(C)C)C(=O)N[C@@H](CO)C(=O)N[C@H](CCCNC(=N)N)C(=O)N[C@@H](CC(C)C)C(=O)N[C@H](C(=O)O)C(C)C [Peptide G12.16, RDvARrFMrrQSrVISrLV] (H-RD[dV]AR[dR]FM[dR][dR]QS[dR]VIS[dR]LV-OH; N-terminus and C-terminus assumed)	5.6	3510	1.39	720	1000	2.8
CC[C@H](C)[C@H](NC(=O)[C@H](NC(=O)[C@H](CCCNC(=N)N)NC(=O)[C@H](CO)NC(=O)[C@H](CCC(N)=O)NC(=O)[C@@H](CCCNC(=N)N)NC(=O)[C@@H](CCCNC(=N)N)NC(=O)[C@H](CCSC)NC(=O)[C@H](Cc1ccccc1)NC(=O)[C@@H](CCCNC(=N)N)NC(=O)[C@H](CCCNC(=N)N)NC(=O)[C@@H](C)NC(=O)[C@@H](NC(=O)[C@H](CC(=O)O)NC(=O)[C@@H](N)CCCNC(=N)N)C(C)C)C(C)C)C(=O)N[C@@H](CO)C(=O)N[C@@H](CCCNC(=N)N)C(=O)N[C@H](CC(C)C)C(=O)N[C@H](C(=O)O)C(C)C [Peptide G12.17, RDVaRrFMrrQSRvISRlV] (H-RDV[dA]R[dR]FM[dR][dR]QSR[dV]ISR[dL]V-OH; N-terminus and C-terminus assumed)	2.8	1750	3.3	890	1600	2.8
CC[C@@H](C)[C@@H](NC(=O)[C@@H](NC(=O)[C@H](CCCNC(=N)N)NC(=O)[C@@H](CO)NC(=O)[C@H](CCC(N)=O)NC(=O)[C@@H](CCCNC(=N)N)NC(=O)[C@@H](CCCNC(=N)N)NC(=O)[C@H](CCSC)NC(=O)[C@H](Cc1ccccc1)NC(=O)[C@H](CCCNC(=N)N)NC(=O)[C@H](CCCNC(=N)N)NC(=O)[C@@H](C)NC(=O)[C@@H](NC(=O)[C@H](CC(=O)O)NC(=O)[C@@H](N)CCCNC(=N)N)C(C)C)C(C)C)C(=O)N[C@@H](CO)C(=O)N[C@@H](CCCNC(=N)N)C(=O)N[C@@H](CC(C)C)C(=O)N[C@H](C(=O)O)C(C)C [Peptide G12.18, RDVaRRFMrrQsRViSRLV] (H-RDV[dA]RRFM[dR][dR]Q[dS]RV[dI]SRLV-OH; N-terminus and C-terminus assumed)	5.6	3510	2.9	1000	1610	2.8
CSCC[C@@H](NC(=O)[C@H]1CCCN1C(=O)[C@@H](CCCCN)NC(=O)[C@@H](CCCCN)NC(=O)[C@@H](CO)NC(=O)[C@H](NC(=O)[C@@H](CCCCN)NC(=O)[C@@H](CCCCN)NC(=O)[C@@H](CCCCN)NC(=O)[C@@H](CCCCN)NC(=O)[C@@H](CCCCN)NC(=O)[C@@H](CCCCN)NC(=O)[C@H](N)CCCCN)C(C)C)C(=O)N[C@H](CCCCN)C(=O)N[C@H](CCCCN)C(=O)N[C@H](Cc1ccc(O)cc1)C(=O)N[C@H](CCCCN)C(=O)N[C@H](CO)C(=O)N[C@H](CCCCN)C(=O)N[C@H](CCCCN)C(=O)N1CCC[C@@H]1C(=O)N[C@H](CCCCN)C(=O)N[C@H](CCCCN)C(=O)N[C@H](CC(C)C)C(=O)N[C@@H](C(=O)O)C(C)C [Peptide G12.29, kkkkkkkvskkpmkkykskkpkklv] (H-[dK][dK][dK][dK][dK][dK][dK][dV][dS][dK][dK][dP][dM][dK][dK][dY][dK][dS][dK][dK][dP][dK][dK][dL][dV]-OH; N-terminus and C-terminus assumed)	0.35	210	0.15	100	280	1.15
CC(C)[C@H](NC(=O)[C@H](CO)NC(=O)[C@H](CCCNC(=N)N)NC(=O)[C@@H](N)CCC(N)=O)C(=O)N[C@@H](CO)C(=O)N[C@@H](CCCNC(=N)N)C(=O)N[C@H](C)C(=O)N[C@H](C)C(=O)N[C@H](C(=O)N[C@@H](CCCNC(=N)N)C(=O)N[C@H](C(=O)N[C@@H](CO)C(=O)N[C@@H](CCCNC(=N)N)C(=O)N[C@H](C(=O)NCC(=O)N[C@@H](CCCNC(=N)N)C(=O)N[C@@H](CO)C(=O)N[C@@H](CCCNC(=N)N)C(=O)N[C@@H](Cc1c[nH]c2ccccc12)C(=O)O)[C@@H](C)O)C(C)C)[C@@H](C)O [Peptide G13.7, QRSVSRaaTRVSRTGRSRW] (H-QRSVSR[dA][dA]TRVSRTGRSRW-OH; N-terminus and C-terminus assumed)	>10	7700	5.7	2850	> 10000	>10
CSCC[C@H](NC(=O)[C@H](Cc1ccccc1)NC(=O)[C@H](CCCNC(=N)N)NC(=O)[C@H](CCCNC(=N)N)NC(=O)[C@H](CO)NC(=O)[C@@H](NC(=O)[C@@H](CC(=O)O)NC(=O)[C@@H](CCCNC(=N)N)NC(=O)[C@H](Cc1c[nH]c2ccccc12)NC(=O)[C@H](CCCNC(=N)N)NC(=O)[C@H](CO)NC(=O)[C@H](CCCNC(=N)N)NC(=O)CN)C(C)C)C(=O)N[C@@H](CCCNC(=N)N)C(=O)N[C@@H](CCCNC(=N)N)C(=O)O [Peptide G14.10, GRSRWrdVSRRFMRR] (H-GRSRW[dR][dD]VSRRFMRR-OH; N-terminus and C-terminus assumed)	2.8	1750	1.25	450	890	1.4
FDTPRRVSRRFMRRLGH [Peptide G11.43, FDTPRRVSRRFMRRLGH]	0.75	210	0.75	420	3000	>10
GRARWRDVARRFMRR [Peptide G14.9, GRARWRDVARRFMRR]	1.37	850	1.38	810	440	0.65
GRSGWRDVSRNFRRG [Peptide G14.12, GRSGWRDVSRNFRRG]	>10	> 10000	>10	6750	> 10000	>10
GRSLWRDVSRNFMRR [Peptide G14.13, GRSLWRDVSRNFMRR]	>10	> 10000	5.6	1850	7600	>10
GRSRWRDVSRNFMRR [Peptide G14.1, GRSRWRDVSRNFMRR]	>10	7660	1.37	890	1750	2.8
GRSRWRDVSRRFMRR [Peptide G14.2, GRSRWRDVSRRFMRR]	2.8	1750	1.45	850	860	1.4
GSRRWRDVSRRFMRR [Peptide G14.14, GSRRWRDVSRRFMRR]	0.35	210	0.17	110	210	0.7

Reference: patent publication US7745390B2, “Antimicrobial peptides” (priority 2005, dated 2010)
